Data reported in patent US6936585B2, “Corticotropin releasing factor 2 receptor agonists” (priority 2002, dated 2005).
Ends that are not written are not given here. Peptide text beside a SMILES is read from it.

Tests used:
CRF2R = target: T1, CRF2R (Homo sapiens, UniProt Q13324); experiment: CRF2R agonist activation (EC50 / Emax), called comparative CRF binding; assay type: cell-based; conditions: for Emax: read-out: CRF2R Emax; for EC50: read-out: CRF2R EC50
T1 sequence (Q13324 1-411): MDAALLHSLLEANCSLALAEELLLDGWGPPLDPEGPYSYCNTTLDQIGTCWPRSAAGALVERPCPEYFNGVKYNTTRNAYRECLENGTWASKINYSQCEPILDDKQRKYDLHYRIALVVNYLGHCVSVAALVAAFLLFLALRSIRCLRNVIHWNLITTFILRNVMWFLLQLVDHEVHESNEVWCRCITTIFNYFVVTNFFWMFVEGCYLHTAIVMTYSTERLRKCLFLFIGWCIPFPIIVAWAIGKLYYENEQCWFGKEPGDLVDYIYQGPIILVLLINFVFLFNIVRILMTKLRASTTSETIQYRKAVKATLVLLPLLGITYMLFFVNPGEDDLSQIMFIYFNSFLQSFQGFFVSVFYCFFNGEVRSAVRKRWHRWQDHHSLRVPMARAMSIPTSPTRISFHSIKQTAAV
From the text: (§1) The pharmacological activity and selectivity of the peptides of present invention can be determined using published test procedures. See, e.g, U.S. patent application Ser. No. 09/799,978 (now issued U.S. Pat. No. 6,670,140). Because CRF2R and CRF1R are homologous proteins, it is expected that a certain proportion of agonists for CRF2R will also function as agonists of CRF1R. As discussed above, activation of CRF1R induces activation of the HPA axis since increased corticosteroid production leads to skeletal muscle atrophy. In most cases in which an increase in muscle mass or function is desired, it is not desirable to activate the HPA axis.
(§2) Cell-based assays include the steps of contacting cells which express CRF1R or CRF2R with a peptide of the present invention or control and measuring activation of the CRFR by measuring the expression or activity of components of the CRFR signal transduction pathways.
(§3) For example, after contact with a peptide of the present invention, lysates of the cells can be prepared and assayed for induction of cAMP. cAMP is induced in response to Gαs activation. Because Gαs is activated by receptors other than CRFR and because a test peptide may be exerting its effect through CRFRs or by another mechanism, two control comparisons are relevant for determining whether the peptide increases levels of cAMP via activation of a CRFR. One control compares the cAMP level of cells contacted with the peptide and the cAMP level of cells contacted with a control compound (i.e., the vehicle in which the peptide is dissolved).
(§4) In one example, cAMP induction is measured with the use of DNA constructs containing the cAMP responsive element linked to any of a variety of reporter genes can be introduced into cells expressing CRFRs. Such reporter genes include, but are not limited to, chloramphenicol acetyltransferase (CAT), luciferase, glucuronide synthetase, growth hormone, fluorescent proteins (e.g., Green Fluorescent Protein), or alkaline phosphatase. Following exposure of the cells to the peptide, the level of reporter gene expression can be quantitated to determine the peptide's ability to increase cAMP levels and thus determine the peptide's ability to activate the CRFR.
(§5) In addition to using cells expressing full length CRFRs, cells can be engineered which express CRFRs containing the ligand binding domain of the receptor coupled to, or physically modified to contain, reporter elements or to interact with signaling proteins. For example, a wild type CRFR or CRFR fragment can be fused to a G-protein resulting in activation of the fused G-protein upon agonist binding to the CRFR portion of the fusion protein. […] In addition, alternative pathways for induction of the CRE reporter could be eliminated to reduce basal levels.

CRF1R = target: T2, CRF1R (Homo sapiens, UniProt P34998); experiment: CRF1R agonist activation (EC50 / Emax), called comparative CRF binding; assay type: cell-based; conditions: for Emax: read-out: CRF1R Emax; for EC50: read-out: CRF1R EC50
T2 sequence (P34998 24-415): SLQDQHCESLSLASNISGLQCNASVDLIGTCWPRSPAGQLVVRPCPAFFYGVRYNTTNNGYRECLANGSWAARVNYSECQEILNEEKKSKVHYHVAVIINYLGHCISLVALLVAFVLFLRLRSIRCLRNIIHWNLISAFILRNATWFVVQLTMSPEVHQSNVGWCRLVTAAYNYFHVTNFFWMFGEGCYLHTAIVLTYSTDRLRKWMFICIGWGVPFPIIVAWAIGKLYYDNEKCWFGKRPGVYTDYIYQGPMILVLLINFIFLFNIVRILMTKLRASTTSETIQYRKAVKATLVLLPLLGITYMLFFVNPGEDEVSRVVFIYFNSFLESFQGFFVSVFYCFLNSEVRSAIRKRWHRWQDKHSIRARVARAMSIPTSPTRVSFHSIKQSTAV
From the text: as §1, §2, §3, §4, §5

| Molecule | Emax (CRF2R) [%] | Emax (CRF1R) [%] | EC50 (CRF2R) [nM] | EC50 (CRF1R) [nM] |
| --- | --- | --- | --- | --- |
| CC[C@H](C)[C@H](N)C(=O)N[C@H](C(=O)N[C@@H](CC(C)C)C(=O)N[C@@H](CO)C(=O)N[C@@H](CC(C)C)C(=O)N[C@@H](CC(=O)O)C(=O)N[C@H](C(=O)N1CCC[C@H]1C(=O)N[C@H](C(=O)NCC(=O)N[C@@H](CC(C)C)C(=O)N[C@@H](CC(C)C)C(=O)N[C@@H](CCC(N)=O)C(=O)N[C@H](C(=O)N[C@@H](CC(C)C)C(=O)N[C@@H](CC(C)C)C(=O)N[C@@H](CCC(=O)O)C(=O)N[C@@H](CCC(N)=O)C(=O)N[C@@H](CCC(=O)O)C(=O)N[C@@H](CCCNC(=N)N)C(=O)N[C@@H](CCC(N)=O)C(=O)N[C@@H](CCC(=O)O)C(=O)N[C@@H](C)C(=O)N[C@@H](C)C(=O)N[C@@H](CCCNC(=N)N)C(=O)N[C@@H](CCC(=O)O)C(=O)N[C@@H](CCC(N)=O)C(=O)N[C@@H](C)C(=O)N[C@H](C(=O)N[C@H](C(=O)N[C@@H](CC(N)=O)C(=O)N[C@@H](C)C(=O)N[C@@H](CCCNC(=N)N)C(=O)N[C@H](C(=O)N[C@@H](CC(C)C)C(=O)N[C@@H](C)C(=O)N[C@@H](CCCNC(=N)N)C(=O)N[C@H](C(N)=O)C(C)C)[C@@H](C)CC)[C@@H](C)O)[C@@H](C)O)[C@@H](C)CC)[C@@H](C)CC)C(C)C)C(C)C [compound 118] (H-IVLSLDVPIGLLQILLEQERQEAAREQATTNARILARV-NH2; N-terminus assumed) | 100 | 5 | – | – |
| CC[C@H](C)[C@H](NC(=O)[C@H](CCCNC(=N)N)NC(=O)[C@H](C)NC(=O)[C@H](CC(N)=O)NC(=O)[C@H](CCC(N)=O)NC(=O)[C@H](CCC(=O)O)NC(=O)[C@H](C)NC(=O)[C@H](CCCNC(=N)N)NC(=O)[C@H](CCC(=O)O)NC(=O)[C@H](CCCNC(=N)N)NC(=O)[C@H](CCC(N)=O)NC(=O)[C@H](CO)NC(=O)[C@H](CCC(N)=O)NC(=O)[C@@H](NC(=O)[C@H](CCCNC(=N)N)NC(=O)[C@H](C)NC(=O)[C@H](CC(C)C)NC(=O)[C@H](CCC(=O)O)NC(=O)[C@H](CC(C)C)NC(=O)[C@H](CC(C)C)NC(=O)[C@@H](NC(=O)[C@H](CCCNC(=N)N)NC(=O)[C@H](CC(C)C)NC(=O)[C@H](CC(C)C)NC(=O)[C@H](Cc1ccccc1)NC(=O)[C@H](CC(C)C)NC(=O)[C@@H]1CCCN1C(=O)[C@H](CC(C)C)NC(=O)[C@H](CC(=O)O)NC(=O)[C@@H](NC(=O)[C@H](CO)NC(=O)[C@H](CC(C)C)NC(=O)[C@H](CO)NC(=O)[C@@H]1CCCN1C(=O)[C@H](CC(N)=O)NC(=O)[C@@H](N)CC(=O)O)[C@@H](C)CC)[C@@H](C)O)[C@@H](C)O)C(=O)N[C@@H](Cc1ccccc1)C(=O)N[C@@H](C)C(=O)N[C@@H](CCCNC(=N)N)C(=O)N[C@H](C(N)=O)C(C)C [compound 329] (H-DNPSLSIDLPLFLLRTLLELARTQSQRERAEQNARIFARV-NH2; N-terminus assumed) | 98.3 | 98.4 | – | – |
| SQEPPISLDLPIHLLREVLEMTKADQLAQQAHSNRKLLDIA-NH2 [compound 94] | 6.15 | 7.3 | – | – |
| CC[C@H](C)[C@H](N)C(=O)N[C@H](C(=O)N[C@@H](CC(C)C)C(=O)N[C@@H](CO)C(=O)N[C@@H](CC(C)C)C(=O)N[C@@H](CC(=O)O)C(=O)N[C@H](C(=O)N1CCC[C@H]1C(=O)N[C@H](C(=O)NCC(=O)N[C@@H](CC(C)C)C(=O)N[C@@H](CC(C)C)C(=O)N[C@@H](CCC(N)=O)C(=O)N[C@H](C(=O)N[C@@H](CC(C)C)C(=O)N[C@@H](CC(C)C)C(=O)N[C@@H](CCC(=O)O)C(=O)N[C@@H](CCC(N)=O)C(=O)N[C@@H](CCCNC(=N)N)C(=O)N[C@@H](C)C(=O)N[C@@H](C)C(=O)N[C@@H](CCCNC(=N)N)C(=O)N[C@@H](CCC(=O)O)C(=O)N[C@@H](CCC(N)=O)C(=O)N[C@@H](C)C(=O)N[C@H](C(=O)N[C@H](C(=O)N[C@@H](CC(N)=O)C(=O)N[C@@H](C)C(=O)N[C@@H](CCCNC(=N)N)C(=O)N[C@H](C(=O)N[C@@H](CC(C)C)C(=O)N[C@@H](C)C(=O)N[C@@H](CCCNC(=N)N)C(=O)N[C@H](C(N)=O)C(C)C)[C@@H](C)CC)[C@@H](C)O)[C@@H](C)O)[C@@H](C)CC)[C@@H](C)CC)C(C)C)C(C)C [compound 136] (H-IVLSLDVPIGLLQILLEQRAAREQATTNARILARV-NH2; N-terminus assumed) | 68 | 8 | 23.4 | > 100 |
| NDDPPISIDLPLFLLRNMIEMARIENEREQAGLNAKYLAEV-NH2 [compound 257] | 72.6 | 83.5 | – | – |
| NDDPPISIDLPLHLLRNMIEMARIENEREQAGLNAKYLAEV-NH2 [compound 259] | 65 | 83.6 | – | – |
| CC[C@H](C)[C@H](NC(=O)[C@H](Cc1c[nH]cn1)NC(=O)[C@H](C)NC(=O)[C@H](CC(N)=O)NC(=O)[C@H](CCC(N)=O)NC(=O)[C@H](CCC(=O)O)NC(=O)[C@H](C)NC(=O)[C@H](CCCNC(=N)N)NC(=O)[C@H](CCC(=O)O)NC(=O)[C@H](CCCNC(=N)N)NC(=O)[C@H](CCC(N)=O)NC(=O)[C@H](CO)NC(=O)[C@H](CCC(N)=O)NC(=O)[C@@H](NC(=O)[C@H](CCCCN)NC(=O)[C@H](CCC(=O)O)NC(=O)[C@H](CC(C)C)NC(=O)[C@H](CCC(=O)O)NC(=O)[C@H](CC(C)C)NC(=O)[C@H](CC(C)C)NC(=O)[C@@H](NC(=O)[C@H](CCCNC(=N)N)NC(=O)[C@H](CC(C)C)NC(=O)[C@H](CC(C)C)NC(=O)[C@H](CC(C)C)NC(=O)[C@H](CC(C)C)NC(=O)[C@@H]1CCCN1C(=O)[C@H](CC(C)C)NC(=O)[C@H](CC(=O)O)NC(=O)[C@@H](NC(=O)[C@H](CO)NC(=O)[C@H](CC(C)C)NC(=O)[C@H](CO)NC(=O)[C@@H]1CCCN1C(=O)[C@H](CC(N)=O)NC(=O)[C@@H](N)CC(=O)O)[C@@H](C)CC)[C@@H](C)O)[C@@H](C)O)C(=O)N[C@@H](Cc1ccccc1)C(=O)N[C@@H](C)C(=O)N[C@@H](Cc1c[nH]cn1)C(=O)N[C@H](C(N)=O)C(C)C [compound 328] (H-DNPSLSIDLPLLLLRTLLELEKTQSQRERAEQNAHIFAHV-NH2; N-terminus assumed) | 95.7 | 30.7 | 11.7 | ≥ 1000 |
| CC[C@H](C)[C@H](N)C(=O)N[C@H](C(=O)N[C@@H](CC(C)C)C(=O)N[C@@H](CO)C(=O)N[C@@H](CC(C)C)C(=O)N[C@@H](CC(=O)O)C(=O)N[C@H](C(=O)N1CCC[C@H]1C(=O)N[C@H](C(=O)NCC(=O)N[C@@H](CC(C)C)C(=O)N[C@@H](CC(C)C)C(=O)N[C@@H](CCC(N)=O)C(=O)N[C@H](C(=O)N[C@@H](CC(C)C)C(=O)N[C@@H](CC(C)C)C(=O)N[C@@H](CCC(=O)O)C(=O)N[C@@H](CCC(N)=O)C(=O)N[C@@H](C)C(=O)N[C@@H](CCCNC(=N)N)C(=O)N[C@@H](CCC(N)=O)C(=O)N[C@@H](CCC(=O)O)C(=O)N[C@@H](C)C(=O)N[C@@H](C)C(=O)N[C@@H](CCCNC(=N)N)C(=O)N[C@@H](CCC(=O)O)C(=O)N[C@@H](CCC(N)=O)C(=O)N[C@@H](C)C(=O)N[C@H](C(=O)N[C@H](C(=O)N[C@@H](CC(N)=O)C(=O)N[C@@H](C)C(=O)N[C@@H](CCCNC(=N)N)C(=O)N[C@H](C(=O)N[C@@H](CC(C)C)C(=O)N[C@@H](C)C(=O)N[C@@H](CCCNC(=N)N)C(=O)N[C@H](C(N)=O)C(C)C)[C@@H](C)CC)[C@@H](C)O)[C@@H](C)O)[C@@H](C)CC)[C@@H](C)CC)C(C)C)C(C)C [compound 123] (H-IVLSLDVPIGLLQILLEQARQEAAREQATTNARILARV-NH2; N-terminus assumed) | 93.8 | 9.6 | – | – |
